Like-named read-outs stand apart in the source and are kept apart here.
Tested on: Human prostate PC3 tumor cells
Experiment: aFGF/bFGF-induced resistance and reversal by suramin, sulforhodamine B assay
Assay type: cell-based
Procedure: The experimental conditions are described briefly below. […] Cell number was measured using the sulforhodamine B assay which measures the total protein concentration. […] The FGF-induced resistance was dependent on the FGF concentrations, with a higher resistance at higher FGF concentrations.

[1] = no suramin, relative to control
[2] = read-out: IC50, Control (drug treatment only, without FGF treatment), No suramin, drug 96 hours
[3] = read-out: IC50, Control (without FGF treatment), Suramin, 15 μM, drug 96 hours with 15 μM suramin
[4] = read-out: IC50, aFGF 0.3 ng/ml + bFGF 1 ng/ml, No suramin, FGF pretreatment 96 hours, drug 96 hours
[5] = read-out: IC50, aFGF 0.3 ng/ml + bFGF 1 ng/ml, With suramin, FGF pretreatment 96 hours, drug 96 hours with 15 micromolar suramin
[6] = read-out: IC50, aFGF 1 ng/ml + bFGF 3 ng/ml, No suramin, FGF pretreatment 96 hours, drug 96 hours
[7] = read-out: IC50, aFGF 1 ng/ml + bFGF 3 ng/ml, With suramin, FGF pretreatment 96 hours, drug 96 hours with 15 micromolar suramin
[8] = Homo sapiens, read-out: IC50, Control (drug treatment only, without FGF treatment), No suramin, drug 96 hours
[9] = Homo sapiens, read-out: IC50, aFGF 0.3 ng/ml + bFGF 1 ng/ml, No suramin, FGF pretreatment 96 hours, drug 96 hours
[10] = Homo sapiens, read-out: IC50, aFGF 1 ng/ml + bFGF 3 ng/ml, No suramin, FGF pretreatment 96 hours, drug 96 hours

Row | SMILES | Resistance, Folds, aFGF 0.3 ng/ml + bFGF 1 ng/ml [1] [Folds] | Resistance, Folds, aFGF 1 ng/ml + bFGF 3 ng/ml [1] [Folds] | IC50 [2] [µM] | IC50 [3] [µM] | IC50 [4] [µM] | IC50 [5] [µM] | IC50 [6] [µM] | IC50 [7] [µM] | IC50 [8] [µM] | IC50 [9] [µM] | IC50 [10] [µM] | Resistance, Folds, aFGF 0.3 ng/ml + bFGF 1 ng/ml [Folds] | Resistance, Folds, aFGF 1 ng/ml + bFGF 3 ng/ml [Folds] | IC50 (Homo sapiens, 96 h, read-out: IC50, Control (drug treatment only, without FGF treatment), No suramin) [µM] | IC50 (Homo sapiens, 96 h, read-out: IC50, aFGF 0.3 ng/ml + bFGF 1 ng/ml, No suramin) [µM] | IC50 (Homo sapiens, 96 h, read-out: IC50, aFGF 1 ng/ml + bFGF 3 ng/ml, No suramin) [µM] | IC50 (read-out: IC50, Control (without FGF treatment), Suramin, 15 μM) [µM] | IC50 (read-out: IC50, aFGF 0.3 ng/ml + bFGF 1 ng/ml, With suramin) [µM] | IC50 (read-out: IC50, aFGF 1 ng/ml + bFGF 3 ng/ml, With suramin) [µM]
1 | CC(O)CCC(=O)c1ccoc1 (stereo not shown) [4-Ipomeanol] | 0.92 | 1.25 | 4110 | 4510 | 3780 | 5040 | 5130 | 3930 | – | – | – | – | – | – | – | – | – | – | –
2 | Nc1ncn([C@H]2C[C@H](O)[C@@H](CO)O2)c(=O)n1 [5-Aza 2′-deoxycytidine] | 2.12 | 3.96 | – | 6.14 | – | 6.54 | – | 6.39 | 6.63 | 14 | 26.3 | – | – | – | – | – | – | – | –
3 | Nc1ncn([C@@H]2O[C@H](CO)[C@@H](O)[C@H]2O)c(=O)n1 [5-Azacitidine] | 2.27 | 4.33 | – | 6.94 | – | 6.45 | – | 7.32 | 6.09 | 13.8 | 26.4 | – | – | – | – | – | – | – | –
4 | O=c1[nH]c(=O)n([C@@H]2O[C@H](CO)[C@@H](O)[C@H]2O)cc1F [5-Fluorouridine] | 1.57 | 2.50 | – | – | – | 0.33 | – | 0.29 | 0.28 | 0.44 | 0.7 | – | – | – | – | – | – | – | –
5 | O=c1[nH]c(=O)n([C@H]2C[C@H](O)[C@@H](CO)O2)cc1F [5-fluorodoeoxyuridine] | 1.54 | 2.09 | – | 0.00711 | – | 0.0066 | – | 0.00575 | 0.00588 | 0.00903 | 0.0123 | – | – | – | – | – | – | – | –
6 | Sc1ncnc2nc[nH]c12 [6-Mercaptopurine] | 1.90 | 3.50 | – | 1.67 | – | 1.7 | – | 1.55 | 1.57 | 2.99 | 5.5 | – | – | – | – | – | – | – | –
7 | Nc1nc2nc[nH]c2c(=S)[nH]1 [6-Thioguanine] | 3.43 | 5.14 | – | 0.32 | – | 0.32 | – | 0.3 | 0.28 | 0.96 | 1.44 | – | – | – | – | – | – | – | –
8 | N[C@H](C(=O)O)[C@@H]1CC(Cl)=NO1 [Acivicin] | 2.11 | 3.49 | – | 1.28 | – | 1.65 | – | 1.63 | 1.58 | 3.34 | 5.52 | – | – | – | – | – | – | – | –
9 | Nc1ncnc2c1ncn2[C@@H]1O[C@H](CO)[C@@H](O)[C@@H]1O [Adenosine arabinoside (Ara-A), Adenosine arabinoside] | 1.56 | 2.13 | 21.5 | 22.7 | 33.6 | 19 | 45.7 | 21 | – | – | – | – | – | – | – | – | – | – | –
10 | N[C@@H](CN(O)N=O)C(=O)O [Alanosine] | 2.03 | 3.44 | – | 2.15 | – | 2.4 | – | 2.12 | 2.06 | 4.18 | 7.08 | – | – | – | – | – | – | – | –
11 | COc1cc(NS(C)(=O)=O)ccc1Nc1c2ccccc2nc2ccccc12 [Amsacrine] | 1.85 | 2.66 | – | 0.68 | – | 0.74 | – | 0.67 | 0.71 | 1.32 | 1.9 | – | – | – | – | – | – | – | –
12 | O=NN(CCCl)C(=O)NCCCl [BCNU] | 1.56 | 2.26 | – | 34.2 | – | 36.5 | – | 33.3 | 33.5 | 52.2 | 75.6 | – | – | – | – | – | – | – | –
13 | CS(=O)(=O)OCCCCOS(C)(=O)=O [Busulfan] | 1.14 | 1.48 | – | 89.2 | – | – | – | – | 86.2 | – | – | – | – | – | – | – | – | – | –
14 | N.N.O=C([O-])C1(C(=O)[O-])CCC1.[Pt+2] [Carboplatin] | 1.68 | 4.04 | 2.25 | 2.11 | 3.79 | 2.29 | 9.1 | 2.31 | – | – | – | – | – | – | – | – | – | – | –
15 | O=C(O)CCCc1ccc(N(CCCl)CCCl)cc1 [Chlorambucil] | 1.67 | 2.77 | – | 33.1 | – | 44.4 | – | 37.6 | 31.9 | 53.5 | 88.3 | – | – | – | – | – | – | – | –
16 | Nc1nc(Cl)nc2c1ncn2[C@H]1C[C@H](O)[C@@H](CO)O1 [Cladribine] | 1.31 | 1.86 | – | 0.36 | – | – | – | 0.34 | 0.35 | 0.46 | 0.65 | – | – | – | – | – | – | – | –
17 | O=P1(N(CCCl)CCCl)NCCCO1 (stereo not shown) [Cyclophosphamide] | – | – | – | – | – | – | – | – | – | – | – | 2.18 | 3.00 | 0.51 | 1.11 | 1.53 | 0.48 | 0.57 | 0.5
18 | Nc1ccn([C@@H]2O[C@H](CO)[C@@H](O)[C@@H]2O)c(=O)n1 [Cytarabine/Ara-C, Cytarabine] | 3.26 | 8.41 | 0.39 | 0.46 | 1.27 | 0.42 | 3.26 | 0.45 | – | – | – | – | – | – | – | – | – | – | –
19 | CN(C)/N=N/c1[nH]cnc1C(N)=O [Dacarbazine] | 1.47 | 2.95 | – | 37.6 | – | 32.4 | – | 39.7 | 36.6 | 53.7 | 108 | – | – | – | – | – | – | – | –
20 | COc1cccc2c1C(=O)c1c(O)c3c(c(O)c1C2=O)C[C@@](O)(C(C)=O)C[C@@H]3O[C@H]1C[C@H](N)[C@H](O)[C@H](C)O1 [Daunorubicin] | 3.31 | 5.33 | – | 0.0291 | – | 0.0265 | – | 0.0302 | 0.0295 | 0.0974 | 0.157 | – | – | – | – | – | – | – | –
